Measured values taken from US6528534B2 (Millennium Pharmaceuticals, Inc., priority 1995, dated 2003).
Counter-ions that a name gives are not always drawn.

Legend:
[1] = target: T1, GPIIb-IIIa (Homo sapiens, UniProt P05106+P08514); assay: ELISA IIb-IIIa assay (fibrinogen binding to immobilized GPIIb-IIIa); conditions: inhibition of biotinylated fibrinogen binding to plate-coated purified platelet GPIIb-IIIa receptor
T1 construct: Purified platelet GPIIb-IIIa receptor was prepared as described by Fitzgerald; from tissue; host or cells: platelets
Description: No. 1—The ELISA IIb-IIIa Assay:
In the following assay, GPIIb-IIIa is prepared in purified form, by a method such as described by Fitzgerald, L. A., et al., Anal Biochem (1985) 151:169-177, (the disclosure of which is incorporated herein by reference). GPIIb-IIIa is coated onto microtiter plates. The coated support is then contacted with fibrinogen and with the test material (e.g., compounds of Formula I) and incubated for a sufficient time to permit maximal binding of fibrinogen to the immobilized GPIIb-IIIa. Fibrinogen is typically provided at a concentration of about 5-50 nM and the test material can, if desired, be added at a series of dilution. Typical incubations are 2 to 4 hours at 25° C., the time and temperature being interdependent.
After incubation, the solution containing the fibrinogen and test material is removed and the level of binding of fibrinogen measured by quantitating bound fibrinogen to GPIIb-IIIa. Any suitable means of detection may be used, but it is convenient to employ labeled fibrinogen, for example using biotinylated labels. Such methods are well known in the art.
A. Description of Assays—Plate Assays
Purified platelet GPIIb-IIIa receptor was prepared as described by Fitzgerald, L. A., et al., Anal Biochem (1985) 151:169-177 (1985). Vitronectin receptor was prepared as described by Smith, J. W., J. Biol Chem (1988) 263:18726-18731. After purification, the receptors were stored in 0.1% Triton X-100 at 0.1-1.0 mg/ml.
The receptors were coated to the wells of 96-well flat-bottom ELISA plates (Linbro EIA-Plus microtiter plate, Flow Laboratories) after diluting 1:200 with a solution of 20 mM Tris-HCl, 150 mM NaCl, 1 mM CaCl2, pH 7.4, to reduce the Triton X-100 concentration to below its critical micellar concentration and adding an aliquot of 100 ul to each well. The wells were all allowed to incubate overnight at 4° C., and then aspirated to dryness. Additional sites were blocked by the addition of bovine serum albumin (BSA) at 35 mg/ml in the above buffer for two hours at 30° C. to prevent nonspecific binding. The wells were then washed once with binding buffer ([…] Tris-HCl, 100 mM NaCl 2 mM CaCl2, 1 mg/ml BSA).
The corresponding ligands (fibrinogen, von Willebrand Factor, or vitronectin) were conjugated to biotin using commercially available reagents and standard protocols. The labeled ligands were added to the receptor-coated wells at final concentration of 10 nM (100 ul/well) and incubated for 3 hours at 25° C. in the presence or absence of the test samples. After incubation, the wells are aspirated to dryness and bound ligand is quantitated.
The bound protein is detected by the addition of antibiotin antibody conjugated to alkaline phosphatase followed by addition of substrate (p-nitrophenyl phosphate), and determination of the optical density of each well at […]. Decreased color development is observed in wells incubated with test samples which inhibit binding of ligand to receptor.

[2] = tested on: human platelet-rich plasma; assay: Platelet aggregation assay, Aggregation-Human PRP/ADP; assay type: cell-based; conditions: inhibition of ADP-induced aggregation of human platelet-rich plasma
Description: No. 2—The Platelet Aggregation Assay
In addition to the ELISA IIb-IIIa assay previously described the Aggregation-Human PRP/ADP Assay is useful for evaluating therapeutic compounds.
Platelet-rich plasma was prepared from healthy human volunteers for use in determining inhibition of platelet aggregation by the compounds. Blood was collected via a 21-gauge butterfly cannula, using a two-syringe technique into 1/10 volume of 3.8% trisodium citrate.
Platelet-rich plasma was prepared at room temperature by centrifugation of the citrated whole blood at 100×g for twelve minutes. The platelet rich plasma contained approximately 200-400,000 platelets/μl.
Platelet-poor plasma was prepared by centrifugation of citrated whole blood at 12,000×g for 2 minutes.
Platelet aggregation was assayed in a 4-channel platelet aggregatiob profiler (PAP-4, Biodata, Hatboro, Pa.) according to the manufacturers directions. Inhibition of platelet aggregation was studied by adding varying amounts of adenosine diphosphate (ADP) to stirred human platelet-rich plasma. Specifically, the human platelet-rich plasma was incubated with the compound being tested for 1 minute at 37° C. prior to the addition of a variety of aggregating agents most often ADP 5 μM, but also 1 μg/ml collagen, 1 μM U46619 and 0.3 μM platelet activating factor.

T1 sequence (P08514 32-887 limits assumed): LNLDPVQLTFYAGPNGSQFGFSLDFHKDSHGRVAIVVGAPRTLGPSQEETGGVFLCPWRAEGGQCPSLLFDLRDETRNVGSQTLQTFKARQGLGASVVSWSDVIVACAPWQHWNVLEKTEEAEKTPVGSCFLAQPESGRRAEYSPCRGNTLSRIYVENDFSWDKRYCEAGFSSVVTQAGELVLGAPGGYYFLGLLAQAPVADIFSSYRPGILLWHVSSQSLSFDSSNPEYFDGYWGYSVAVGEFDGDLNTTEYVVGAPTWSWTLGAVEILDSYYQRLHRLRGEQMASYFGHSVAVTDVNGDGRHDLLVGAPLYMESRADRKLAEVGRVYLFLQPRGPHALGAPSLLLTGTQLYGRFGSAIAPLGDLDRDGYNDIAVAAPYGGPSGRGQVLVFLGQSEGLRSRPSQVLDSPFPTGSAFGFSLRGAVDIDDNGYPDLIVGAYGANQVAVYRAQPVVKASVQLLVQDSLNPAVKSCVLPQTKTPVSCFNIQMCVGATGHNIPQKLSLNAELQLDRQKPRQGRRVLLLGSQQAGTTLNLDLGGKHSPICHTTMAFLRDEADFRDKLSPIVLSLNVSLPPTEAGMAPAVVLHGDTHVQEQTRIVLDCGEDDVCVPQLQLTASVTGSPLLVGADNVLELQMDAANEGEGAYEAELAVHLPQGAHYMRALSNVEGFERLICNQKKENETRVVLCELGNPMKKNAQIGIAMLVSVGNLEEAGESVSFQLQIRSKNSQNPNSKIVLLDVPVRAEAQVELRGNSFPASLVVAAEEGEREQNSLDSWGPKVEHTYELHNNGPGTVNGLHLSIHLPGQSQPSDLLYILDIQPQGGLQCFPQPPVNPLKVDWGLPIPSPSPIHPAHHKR
T1 sequence (P08514 891-1039 limits assumed): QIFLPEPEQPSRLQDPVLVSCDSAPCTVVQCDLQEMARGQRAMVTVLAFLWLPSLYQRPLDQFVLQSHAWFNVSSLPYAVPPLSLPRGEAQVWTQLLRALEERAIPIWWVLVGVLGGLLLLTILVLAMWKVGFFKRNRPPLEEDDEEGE
T1 sequence (P05106 27-788): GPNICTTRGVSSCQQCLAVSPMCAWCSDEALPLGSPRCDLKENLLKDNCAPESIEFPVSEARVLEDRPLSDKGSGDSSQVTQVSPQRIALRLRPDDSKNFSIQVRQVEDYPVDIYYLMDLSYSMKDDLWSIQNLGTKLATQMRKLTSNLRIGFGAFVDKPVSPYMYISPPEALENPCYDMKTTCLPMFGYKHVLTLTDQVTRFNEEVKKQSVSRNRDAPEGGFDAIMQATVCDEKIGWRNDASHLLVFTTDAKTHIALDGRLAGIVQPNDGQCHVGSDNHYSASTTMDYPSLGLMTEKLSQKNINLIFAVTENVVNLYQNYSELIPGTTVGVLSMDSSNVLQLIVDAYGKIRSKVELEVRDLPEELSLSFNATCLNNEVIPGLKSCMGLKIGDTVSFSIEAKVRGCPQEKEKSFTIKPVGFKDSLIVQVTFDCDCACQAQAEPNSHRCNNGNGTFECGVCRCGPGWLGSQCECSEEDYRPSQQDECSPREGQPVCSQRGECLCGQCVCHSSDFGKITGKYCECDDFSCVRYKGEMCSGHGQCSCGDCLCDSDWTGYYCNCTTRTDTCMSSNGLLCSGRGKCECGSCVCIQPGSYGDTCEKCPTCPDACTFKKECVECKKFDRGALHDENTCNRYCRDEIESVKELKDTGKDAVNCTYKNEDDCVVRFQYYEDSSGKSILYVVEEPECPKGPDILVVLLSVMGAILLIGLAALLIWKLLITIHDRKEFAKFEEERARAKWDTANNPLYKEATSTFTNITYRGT

Row | SMILES | IC50 [1] | IC50 [2] | melting point
1 | CCOC(=O)CC1CCC2(CC1)CCN(C(=O)c1ccc(C(=N)N)cc1)CC2 [Example 1, Ethyl (3-(4-(Aminoiminomethyl)benzoyl)-3-aza-spiro[5.5]undec-9-yl)acetate Hydrochloride] | > 10 µM | 100 µM | 
2 | O=C(O)CC1CCC2(CC1)CCN(CCC1CCNCC1)CC2 [Example 25, (3-(2-(Piperidin-4-yl)ethyl)-3-azaspiro[5.5]undec-9-yl)acetic Acid] |  | > 10 µM | 
3 | CCOC(=O)CC1CCC2(CC1)CCN(CCC1CCNCC1)CC2 [Example 24, Ethyl (3-(2-(Piperidin-4-yl)ethyl)-3-azaspiro[5.5]undec-9-yl)acetate] |  | > 100 µM | 
4 | N=C(N)c1ccc(COC2CCC3(CC2)CN(CC(=O)O)C(=O)O3)cc1 (stereo not drawn) [Example 34, (8-(4-(Aminoiminomethyl)benzyloxy)-2-oxo-1-oxa-3-aza-spiro[4.5]dec-3-yl)acetic Acid] | 0.35 µM | 1.29 µM | 
5 | N=C(N)c1ccc(C2=NOC3(CCN(C(=O)CCCC(=O)O)CC3)C2)cc1 [Example 17] |  | 0.084 µM | 
6 | N=C(N)c1ccc(C(=O)NC2CCC3(CC2)CN(CC(=O)O)C(=O)O3)cc1 (stereo not drawn) [Example 36, (8-(4-(Aminoiminomethyl)benzamido)-2-oxo-1-oxa-3-aza-spiro[4.5]dec-3-yl)acetic Acid] | 0.17 µM | 0.51 µM | 280 to 284 °C
7 | N=C(N)NCCCC(=O)N1CCC2(CC1)CN(CC(=O)O)C(=O)O2 [Example 37] | 19 µM | 52 µM | 
8 | N=C(N)c1ccc(C(=O)N2CCC3(CC2)CN(CCCC(=O)O)C(=O)CO3)cc1 [Example 12, Hydrochloride] |  | > 10 µM | 
9 | N=C(N)NCCCCCC(=O)N1CCC2(CC1)CN(CC(=O)O)C(=O)O2 [Example 39] | 2.7 µM | 12 µM | 
10 | N=C(N)c1ccc(C(=O)N2CCC3(CCC(CC(=O)O)CC3)CC2)cc1 [Example 2, (3-(4-(Aminoiminomethyl)benzoyl)-3-aza-spiro[5.5]undec-9-yl)acetic Acid Hydrochloride] | 0.0082 µM | 0.41 µM | 
11 | CCOC(=O)CCCN1CCC2(CC1)CC(c1ccc(C(=N)N)cc1)=NO2 [Example 7, Hydrochloride] |  | 2.8 µM | 
12 | N=C(N)c1ccc(C(=O)N2CCC3(CCN(CC(=O)O)C(=O)O3)CC2)cc1 [Example 33, (9-(4-(Aminoiminomethyl)benzoyl)-2-oxo-1-oxa-3,9-diaza-spiro[5.5]undec-3-yl)acetic Acid] | 16.5 µM | 66 µM | 
13 | CCOC(=O)CCN1CCC2(CC1)CC(c1ccc(C(=N)N)cc1)=NO2 [Example 14, Hydrochloride] |  | 0.64 µM | 
14 | N=C(N)NCCCCC(=O)N1CCC2(CC1)CN(CC(=O)O)C(=O)O2 [Example 38] | 1.85 µM | 7 µM | 
15 | N=C(N)c1ccc(C2=NOC3(CCN(CCCCC(=O)O)CC3)C2)cc1 [Example 19] |  | 0.45 µM | 
16 | N=C(N)c1ccc(CC(=O)N2CCC3(CC2)CN(CC(=O)O)C(=O)O3)cc1 [Example 31, (8-(2-(4-Aminoiminomethyl)acetyl)-2-oxo-1-oxa-3,8-diaza-spiro[4.5]dec-3-yl)acetic Acid.] | 0.074 µM | 1.11 µM | 
17 | N=C(N)c1ccc(C2=NOC3(CCN(CCCC(=O)O)CC3)C2)cc1 [Example 8] |  | 0.32 µM | 

Row | SMILES | IC50 [1] | IC50 [2] | melting point
18 | O=C(O)CN1CCC2(CCN(CCC3CCNCC3)CC2)CC1 [Example 27, (9-(2-(Piperidin-4-yl)ethyl)-3,9-diazaspiro[5.5]undec-3-yl)acetic Acid Tristrifluoroacetate] |  | 100 µM | 
19 | N=C(N)c1ccc(C(=O)N2CCC3(CC2)C(=O)N(CC(=O)O)C(=O)N3Cc2ccccc2)cc1 [Example 13, Trifluoroacetate] |  | > 100 µM | 
20 | CCOC(=O)CCCC(=O)N1CCC2(CC1)CC(c1ccc(C(=N)N)cc1)=NO2 [Example 16, Ethyl 5-(3-(4-(Aminoiminomethyl)phenyl)-1-oxa-2,8-diaza-spiro[4.]dec-2-en-8-yl)-5-oxopentanoate Hydrochloride] |  | 0.2 µM | 
21 | N=C(N)c1ccc(C2=NOC3(CCN(C(=O)CCC(=O)O)CC3)C2)cc1 [Example 10] |  | 1 µM | 
22 | O=C(O)CN1CCC2(CCN(CCc3ccncc3)CC2)CC1 [Example 20, (9-(2-(Pyridin-4-yl)ethyl)-3,9-diazaspiro[5.5]undec-3-yl)acetic Acid Bistrifluoroacetate] |  | > 100 µM | 
23 | N=C(N)c1ccc(C2=NOC3(CCN(CC(=O)O)CC3)C2)cc1 [Example 6] |  | 4 µM | 
24 | N=C(N)c1ccc(CC(=O)NC2CCC3(CC2)CN(CC(=O)O)C(=O)O3)cc1 (stereo not drawn) [Example 35, (8-(2-(4-(Aminoiminomethyl)phenyl)acetamido)-2-oxo-1-oxa-3-aza-spiro[4.5]dec-3-yl)acetic Acid] | 0.19 µM | 0.77 µM | 193 to 196 °C
25 | N=C(N)c1ccc(C(=O)N2CCC3(CCN(C(=O)CCCC(=O)O)CC3)CC2)cc1 [Example 42, 5-((3-(4-Aminoiminomethyl)benzoyl)-3,9-diaza-spiro[5.5]undec-9-yl)-5-oxopentanoic Acid] | 3.5 µM | 10 µM | 
26 | N=C(N)c1ccc(CC(=O)N2CCC3(CC2)CCN(CC(=O)O)C(=O)O3)cc1 [Example 32] | 0.2 µM | 2.13 µM | 
27 | O=C(O)CC1CCC2(CC1)CCN(CCc1ccncc1)CC2 [Example 23, (3-(2-(Pyridin-4-yl)ethyl)-3-azaspiro[5.5]undec-9-yl)acetic Acid] |  | > 100 µM | 
28 | N=C(N)c1ccc(C(=O)N2CCC3(CC2)CN(CC(=O)O)C(=O)O3)cc1 [Example 30, (8-(4-(Aminoiminomethyl)benzoyl)-2-oxo-1-oxa-3,8-diaza-spiro[4.5]dec-3-yl)acetic Acid] | 29 µM | 80 µM | 157 to 159 °C
29 | N=C(N)c1ccc(C2=NOC3(CCN(CCC(=O)O)CC3)C2)cc1 [Example 15, 4-(3-(4-(Aminoiminomethyl)phenyl)-1-oxa-2,8-diaza-spiro[4.5]dec-2-en-8-yl)propanoic Acid] |  | 0.11 µM | 
30 | N=C(N)c1ccc(N2CC3(CCN(CCCC(=O)O)CC3)OC2=O)cc1 [Example 4, 4-(3-(4-(Aminoiminomethyl)phenyl)-2-oxo-1-oxa-3,8-diaza-5 spiro[4.5]dec-8-yl)butanoic Acid Bistrifluoroacetate] |  | 3 µM | 
31 | N=C(N)c1ccc(C(=O)N2CCC3(CCN(C(=O)CCC(=O)O)CC3)CC2)cc1 [Example 41, 4-((3-(4-Aminoiminomethyl)benzoyl)-3,9-diaza-spiro[5.5]undec-9-25 yl)-4-oxobutanoic Acid] | 15 µM | 14 µM | 
32 | O=C(O)CN1C(=O)CC2(CCN(CCc3ccncc3)CC2)CC1=O [Example 26, (9-(2-(Pyridin-4-yl)ethyl)-2,4-dioxo-3,9-diazaspiro[5.5]undec-3-yl)acetic Acid Trifluoroacetate] |  | > 100 µM | 
33 | N=C(N)c1ccc(C(=O)N2CCC3(CC2)NC(=O)N(CCCC(=O)O)C3=O)cc1 [Example 21, Trifluoroacetate] |  | > 10 µM | 
34 | CCOC(=O)CC1CCC2(CC1)CCN(CCc1ccncc1)CC2 [Example 22, Ethyl (3-(2-(Pyridin-4-yl)ethyl)-3-azaspiro[5.5]undec-9-yl)acetate] |  | > 100 µM | 
